US20180282260A1, “1-AMINOCYCLOPROPANE-1-CARBOXYLIC ACID POLYMORPHS” (Valent BioSciences LLC, priority 2017, published 2018)

Assays:
cotton cotyledons = assay: Cotton cotyledon bioefficacy assay (ethylene production by gas chromatography); type: in vivo; settings: for Ethylene production in cotton cotyledons, average: Average of trials, 500 ppm ACC, 48 hours after application; for Ethylene production in cotton cotyledons: 500 ppm ACC sprayed on 10-day old cotyledons, removed 48 hours after application, incubated 4 to 7 hours
Experimental: The ACC anhydrate from Chem-Impex International, Inc., an ACC anhydrate prepared by Inogent Laboratories of India and the ACC trihydrate of the present invention were each dissolved with water to 500 ppm w!w of ACC and applied separately to individual sets of 10-day old cotton cotyledons by a hand sprayer in 4 separate trials. 48 hours after application the cotyledons were removed and incubated in sealed vials for 4 to 7 hours. Following incubation, the cotyledons were measured for ethylene gas production by gas chromatography.

[1] = Crystal form stability under high humidity; type: physicochemical

Row | SMILES | Ethylene production in cotton cotyledons, average (cotton cotyledons) [nL C2H4/g/hr] | Ethylene production in cotton cotyledons (cotton cotyledons; Trial 1) [nL C2H4/g/hr] | Ethylene production in cotton cotyledons (cotton cotyledons; Trial 2) [nL C2H4/g/hr] | Ethylene production in cotton cotyledons (cotton cotyledons; Trial 3) [nL C2H4/g/hr] | Ethylene production in cotton cotyledons (cotton cotyledons; Trial 4) [nL C2H4/g/hr] | Ethylene production in cotton cotyledons, average (cotton cotyledons; trihydrate) [nL C2H4/g/hr] | Ethylene production in cotton cotyledons (cotton cotyledons; Trial 1, trihydrate) [nL C2H4/g/hr] | Ethylene production in cotton cotyledons (cotton cotyledons; Trial 2, trihydrate) [nL C2H4/g/hr] | Ethylene production in cotton cotyledons (cotton cotyledons; Trial 3, trihydrate) [nL C2H4/g/hr] | Ethylene production in cotton cotyledons (cotton cotyledons; Trial 4, trihydrate) [nL C2H4/g/hr] | Stability of crystal form [1]
1 | NC1(C(=O)O)CC1 [Inogent Anhydrate] | 20.07 | 25.00 | 20.33 | 17.53 | 17.43 | – | – | – | – | – | –
2 | NC1(C(=O)O)CC1 [Trihydrate, 1-aminocyclopropane-1-carboxylic acid trihydrate] | – | – | – | – | – | 22.71 | 15.06 | 22.04 | 36.30 | 17.46 | most stable crystal form of ACC under high humidity
3 | NC1(C(=O)O)CC1 [Chem-Impex Anhydrate, 1-aminocyclopropane-1-carboxylic acid anhydrate] | 25.66 | 28.14 | 23.18 | – | – | – | – | – | – | – | –
